≈ marks a conversion by molar mass, not a printed value. Read-outs that look alike come from different tables or passages of the source.
What was measured:
[1] = for concentration of methionine remaining in the supernatant (mother liquor): buffer, 18 h
Method: To the cell free broth containing the solubilized L-methionine, sulfuric acid (96% w/w) was added and its pH lowered to […], the isoelectric point of L-methionine. […] The slurry was then stored overnight at 4° C. to allow for precipitation of the crystals. The slurry was then centrifuged to collect the methionine crystals.
At pH of 1.68, cells from the slurried fermenter broth were separated first by centrifugation followed by filtration through a 0.45 micron filter. The pH of the filtrate was then raised to 5.75, the isoelectric point of methionine by addition of 50% NaOH, resulting in formation of L-methionine crystals. The slurry was placed in a refrigerator at 4° C. for 18 hours to allow for additional crystallization of methionine. The crystals were then removed by centrifugation and filtration and further dried on a lyophilizer. The dried crystals were harvested from the lyophilizer. […] Crystals were collected by centrifugation at 4° C. by using a pre-chilled centrifuge.
For optimal recovery of methionine, solids from the acidified slurry above were removed by centrifugation and filtration and the pH of the recovered filtrate was raised to 5.6 using NaOH. […] This solution was placed again in the refrigerator at 4° C. for 18 hours to allow for formation of additional methionine crystals. Crystals formed after 18 hours at 4° C. were filtered and dried in a lyophilizer.

physchem = details: thermodynamic from solid
Method: (§1) The pH of the slurry was measured to be 5.54. A well-mixed sample of this slurry was drawn, and solids removed from the sample by centrifugation followed by filtration.
(§2) From a well-mixed sample of this slurry, solids were removed as before by centrifugation and filtration. […] At this point, the whole cells were separated from the methionine and fermentation solubles by centrifugation.
(§3) Methionine was added to the fermentation broth at a concentration of 56 g/L. In addition to soluble methionine, the slurry had insoluble methionine, microbial cells and components of fermentation media. 50% NaOH was added to the slurry at a concentration equal to 0.5 eq. weight of methionine. […] A sample of the slurry was removed and filtered as previously described.
(§4) Methionine was added to fermentation broth at a concentration of 77 g/L. The slurry was then heated to 70° C. without pH adjustment. This slurry was then filtered through a 0.45 micron filter in a heated filtration unit to remove the whole cells and other insoluble fermentation broth components. The filtrate was collected and analyzed for methionine.
(§5) Concentrated sulfuric acid (H2SO4, 96% w/w) was added in a concentration equal to 1 equivalent weight of methionine to the slurry, lowering the pH of the slurry to 2.49. Methionine concentration was measured from a sample after centrifugation and filtration as previously described.
(§6) H2SO4 (96% w/w) at a concentration of 1 equivalent weight of methionine was added to this slurry, decreasing the pH of the broth to 2.39.

[2] = soluble methionine concentration in the filtrate of L-methionine-supplemented fermentation broth slurry, by HPLC after centrifugation and filtration
Method: as §1, §2, §3, §4, §5, §6

[3] = 25° C., Merck Index 12th Edition 1996; cited from earlier work

| concentration of methionine remaining in the supernatant (mother liquor) ([1]; pH 5.6) [µg/mL] | concentration of methionine remaining in the supernatant (mother liquor) ([1]; pH 5.75) [µg/mL] | concentration of methionine remaining in the supernatant ([1]; pH 5.95) [µg/mL] | solubility (physchem; 22 °C, pH 5.54, plasma or biological fluid) [mg/mL] | solubility (physchem; pH 2.39, plasma or biological fluid) [mg/mL] | solubility (physchem; pH 2.49, plasma or biological fluid) [mg/mL] | solubility (physchem; pH 8.92, plasma or biological fluid) [mg/mL] | solubility (physchem; pH 9.36, plasma or biological fluid) [mg/mL] | solubility of methionine in fermentation broth ([2]; 22° C., no pH adjustment) [mg/mL] | solubility of methionine in the solution versus pH 9.36 ([2]; NaOH 2 equivalent weight, pH 10.22) | solubility of L-methionine versus lower NaOH levels ([2]; NaOH 2.5 equivalent weight, pH 12.53) | concentration of methionine in the filtrate ([2]; slurry with 56 g/L methionine, NaOH 1 eq weight, pH 9.38) [µg/mL] | additional methionine solubilized ([2]; slurry with 56 g/L methionine, NaOH 1.5, 2 and 2.5 eq wt, pH 9.82, 10.47 and 12.23) | concentration of methionine in the filtrate ([2]; slurry with 77 g/L methionine, heated to 70° C., no pH adjustment, 0.45 micron filter) [µg/mL] | SMILES | water solubility [3] [mg/mL] |
| --- | --- | --- | --- | --- | --- | --- | --- | --- | --- | --- | --- | --- | --- | --- | --- |
| 39500 | 47200 | 33000 | 38 (≈ 255 mM) | 55 (≈ 369 mM) | 75 (≈ 503 mM) | 58 (≈ 389 mM) | 78 (≈ 523 mM) | 38 | unchanged | did not further increase | 56000 | No additional methionine was solubilized | 74600 | CSCC[C@H](N)C(=O)O [L-methionine] | – |
| – | – | – | – | – | – | – | – | – | – | – | – | – | – | CSCCC(N)C(=O)O (racemic) [DL-methionine] | 33.81 (≈ 227 mM) |

Reference: patent publication US8338141B2, “Methionine recovery processes” (Novus International, Inc., priority 2003, dated 2012)
